{"source": "patent US20080287429A1", "about": "(Z & Z Medical Holdings, Inc., priority 2007, published 2008)", "key": {"[1]": {"test_system": "sandwich culture human hepatocytes", "details": "cited from earlier work"}, "[2]": {"test_system": "sandwich culture rat hepatocytes", "details": "cited from earlier work"}, "[3]": {"test_system": "bile acid uptake by hepatocyte receptors", "details": "1 mmol/kg, cited from earlier work"}, "[4]": {"test_system": "atherosclerotic plaque in pig artery", "assay": "Solubilization of atherosclerotic plaque material in ex vivo samples of pig artery", "details": "50 mg/mL DCA bath, after 5 hours", "description": "Early in the treatment, on removal of the sample from the bath a clear, viscous, column of fluid extended from the sample. This column of fluid continued to be apparent when samples were evaluated up to about 4 or 5 hours, after which the fluid column was no longer noted. Without wishing to be held to any one theory of operation, it was concluded that the clear fluid comprised components of the plaque. […] The sample was continuously exposed for a period of 8 days."}, "[5]": {"test_system": "sandwich culture rat hepatocyte", "details": "cited from earlier work"}, "[6]": {"details": "wild type mice, same amount of dietary HDCA; cited from earlier work"}, "[7]": {"details": "fed to C57BL/6 LDL r-KO knockout mice, relative to mice not provided HDCA; cited from earlier work"}, "[8]": {"test_system": "hepatocellular uptake of bile acids", "details": "cited from earlier work"}, "[9]": {"details": "in vivo; cited from earlier work"}, "[10]": {"details": "40 mg/day rosuvastatin, cited from earlier work"}}, "note": "Read-outs that look alike come from different tables or passages of the source."}
{"smiles": "CC(C)c1nc(CN(C)C(=O)N[C@H](C(=O)N[C@@H](Cc2ccccc2)C[C@H](O)[C@H](Cc2ccccc2)NC(=O)OCc2cncs2)C(C)C)cs1", "note": "[ritonavir]", "values": [{"measurement": "bile acid transport", "setting": "[1]; 28 μM", "value": "inhibit"}, {"measurement": "bile acid transport", "setting": "[2]; 28 μM", "value": "inhibit"}]}
{"smiles": "ClC=C(Cl)Cl", "note": "[trichloroethylene]", "values": [{"measurement": "serum bile acids", "setting": "[3]", "value": "serum accumulation of bile acids"}, {"measurement": "bile acid uptake by hepatocyte receptors", "setting": "[3]; rather than actual cell damage", "value": "reversible physiological interference"}]}
{"smiles": "C[C@H](CCC(=O)O)[C@H]1CC[C@H]2[C@@H]3CC[C@@H]4C[C@H](O)CC[C@]4(C)[C@H]3C[C@H](O)[C@]12C", "note": "[DCA, deoxycholic acid]", "values": [{"measurement": "plaque volume decreased (macroscopic assessment)", "setting": "[4]", "value": "about 70%"}]}
{"smiles": "COc1ccccc1Oc1c(NS(=O)(=O)c2ccc(C(C)(C)C)cc2)nc(-c2ncccn2)nc1OCCO", "note": "[bosentan]", "values": [{"measurement": "hepatic uptake and excretion of bile acids from the bile pole of the hepatocyte", "setting": "[5]; 100 μM", "value": "inhibit"}]}
{"smiles": "O=C1Nc2ccc(Cl)cc2[C@@](C#CC2CC2)(C(F)(F)F)O1", "note": "[efavirenz]", "values": [{"measurement": "bile acid transport", "setting": "[1]; 32 μM", "value": "inhibit"}, {"measurement": "bile acid transport", "setting": "[2]; 32 μM", "value": "inhibit"}]}
{"smiles": "Cc1c(C)c2c(c(C)c1O)CCC(C)(COc1ccc(CC3SC(=O)NC3=O)cc1)O2", "note": "(stereo not drawn) [troglitazone]", "values": [{"measurement": "hepatic uptake and excretion of bile acids from the bile pole of the hepatocyte", "setting": "[5]; 10 μM", "value": "inhibit"}]}
{"smiles": "C[C@H](CCC(=O)O)[C@H]1CC[C@H]2[C@@H]3C[C@H](O)[C@@H]4C[C@H](O)CC[C@]4(C)[C@H]3CC[C@]12C", "note": "[HDCA, hyodeoxycholic acid]", "values": [{"measurement": "plasma levels", "setting": "[6]", "value": "up to 50 μM"}, {"measurement": "rate of formation of atherosclerotic plaque", "setting": "[7]", "value": "reduced rate of formation"}]}
{"smiles": "CC(=O)N1CCN(c2ccc(OCC3COC(Cn4ccnc4)(c4ccc(Cl)cc4Cl)O3)cc2)CC1", "note": "(stereo not drawn) [ketoconazole]", "values": [{"measurement": "serum levels of cholic acid, taurocholic acid, and chenodeoxycholic acid", "setting": "[8]; 25 mg/kg", "value": "increase"}, {"measurement": "serum levels of cholic, taurocholic, chenodeoxycholic, glycocholic, glycochenodeoxycholic, glycodeoxycholic, deoxycholic and taurochenodeoxycholic acid", "setting": "[8]; 50 mg/kg", "value": "increase"}, {"measurement": "hepatocellular uptake of bile acids", "setting": "[8]; dose related, relatively specific", "value": "strongly inhibiting"}, {"measurement": "side effect", "setting": "[9]", "value": "hepatotoxicity"}]}
{"smiles": "CC(C)c1nc(N(C)S(C)(=O)=O)nc(-c2ccc(F)cc2)c1/C=C/[C@@H](O)C[C@@H](O)CC(=O)O", "note": "[rosuvastatin]", "values": [{"measurement": "reduction with respect to normalized total atheroma volume", "setting": "[10]; after 2 years, SD=11.1", "value": 6.7, "unit": "%"}, {"measurement": "plaque volume reduced, most diseased segments of vessels examined", "setting": "[10]; after 2 years, SD=13.7", "value": 8.5, "unit": "%"}, {"measurement": "modulating LDL, HDL, and triglyceride levels", "setting": "[10]", "value": "particularly effective"}]}
